Data as given in patent US20230312578A1, “6H-INDOLO[2,3-B]QUINOXALINE DERIVATIVES USEFUL IN THERAPY” (Vironova Medical AB, priority 2020, published 2023).
Like-named read-outs stand apart in the source and are kept apart here.

Tests used:
Format in all cases: cell-based
K-562 = assay: Human tumor cell line growth assay (SRB); conditions: K562, Leukemia, K-562, 48 h; for CC50: read-out: LC50 (the source's name)
LOX IMVI = assay: Human tumor cell line growth assay (SRB); conditions: Homo sapiens, Melanoma, 48 h
OVCAR-5 = assay: Human tumor cell line growth assay (SRB); conditions: Homo sapiens; Ovarian, OVCAR-5, 48 h
[1] = Human tumor cell line growth assay (SRB); conditions: human, OVCAR-5 cells (ovarian), OVCAR-5, 48 h, read-out: LC50
HS 578T = assay: Human tumor cell line growth assay (SRB); conditions: Breast, 48 h; for CC50: read-out: LC50 (the source's name)
RPMI-8226 = assay: Human tumor cell line growth assay (SRB); conditions: Homo sapiens; Leukemia, RPMI-8226, 48 h
HCC-2998 = assay: Human tumor cell line growth assay (SRB); conditions: Homo sapiens; Colon, HCC-2998, 48 h
OVCAR-3 = assay: Human tumor cell line growth assay (SRB); conditions: Homo sapiens; Ovarian, OVCAR-3, 48 h
CAKI-1 = assay: Human tumor cell line growth assay (SRB); conditions: Renal, CAKI-1, 48 h; for CC50: read-out: LC50 (the source's name)
NCI-H23 = assay: Human tumor cell line growth assay (SRB); conditions: Homo sapiens; NSCLC, NCI-H23, 48 h
SW-620 = assay: Human tumor cell line growth assay (SRB); conditions: Homo sapiens; Colon, SW-620, 48 h
SNB-75 = assay: Human tumor cell line growth assay (SRB); conditions: Homo sapiens; CNS, SNB-75, 48 h
[2] = Human tumor cell line growth assay (SRB); conditions: human, SNB-75 cells (CNS), SNB-75, 48 h
HL-60(TB) = assay: Human tumor cell line growth assay (SRB); conditions: Leukemia, 48 h; for CC50: read-out: LC50 (the source's name)
IGR-OV1 = assay: Human tumor cell line growth assay (SRB); conditions: Homo sapiens, IGROV-1; Ovarian, IGR-OV1, 48 h
[3] = Human tumor cell line growth assay (SRB); conditions: human, IGR-OV1 cells (ovarian), IGR-OV1, 48 h, read-out: LC50
RXF 393 = assay: Human tumor cell line growth assay (SRB); conditions: Renal, RXF 393, 48 h; for CC50: read-out: LC50 (the source's name)
HOP-92 = assay: Human tumor cell line growth assay (SRB); conditions: Homo sapiens; NSCLC, HOP-92, 48 h
[4] = Human tumor cell line growth assay (SRB); conditions: human, HOP-92 cells (NSCLC), HOP-92, 48 h
NCI-H226 = assay: Human tumor cell line growth assay (SRB); conditions: Homo sapiens; NSCLC, NCI-H226, 48 h
[5] = Human tumor cell line growth assay (SRB); conditions: human, NCI-H226 cells (NSCLC), NCI-H226, 48 h, read-out: LC50
SR = assay: Human tumor cell line growth assay (SRB); conditions: Homo sapiens, Leukemia, 48 h
[6] = Human tumor cell line growth assay (SRB); conditions: human, SR cells (leukemia), read-out: LC50
MDA-MB-468 = assay: Human tumor cell line growth assay (SRB); conditions: Breast, MDA-MB-468, 48 h; for CC50: read-out: LC50 (the source's name)
HOP-62 = assay: Human tumor cell line growth assay (SRB); conditions: Homo sapiens; NSCLC, HOP-62, 48 h
[7] = Human tumor cell line growth assay (SRB); conditions: human, HOP-62 cells (NSCLC), HOP-62, 48 h, read-out: LC50
TK-10 = assay: Human tumor cell line growth assay (SRB); conditions: Renal, TK-10, 48 h; for CC50: read-out: LC50 (the source's name)
Human tumor cell lines = assay: Human tumor cell line growth assay (SRB), summary over the panel; conditions: overall over the panel
786-0 = assay: Human tumor cell line growth assay (SRB); conditions: Renal, 786-0, 48 h
MALME-3M = assay: Human tumor cell line growth assay (SRB); conditions: Homo sapiens, Melanoma, 48 h
OVCAR-8 = assay: Human tumor cell line growth assay (SRB); conditions: Ovarian, OVCAR-8, 48 h; for CC50: read-out: LC50 (the source's name)
[8] = Human tumor cell line growth assay (SRB); conditions: human, LOX IMVI cells (melanoma), read-out: LC50
[9] = Human tumor cell line growth assay (SRB); conditions: human, HCC-2998 cells (colon), HCC-2998, 48 h, read-out: LC50
[10] = Human tumor cell line growth assay (SRB); conditions: human, OVCAR-3 cells (ovarian), OVCAR-3, 48 h, read-out: LC50
[11] = Human tumor cell line growth assay (SRB); conditions: human, NCI-H23 cells (NSCLC), NCI-H23, 48 h, read-out: LC50
[12] = Human tumor cell line growth assay (SRB); conditions: human, SW-620 cells (colon), SW-620, 48 h
[13] = Human tumor cell line growth assay (SRB); conditions: human, MALME-3M cells (melanoma), read-out: LC50

Cc1cc2nc3c4cc(O)ccc4n(CCN(C)C)c3nc2cc1C [JBD-139, 6-(2-(dimethylamino)ethyl)-2,3-dimethyl-6H-indolo [2,3-b]quinoxalin-9-ol]
GI50 (K-562): 338 nM | CC50 (K-562): > 100000 nM | GI50 (LOX IMVI): 338 nM | GI50 (OVCAR-5): 867 nM | CC50 at 48 h [1]: > 100000 nM | GI50 (HS 578T): 1400 nM | CC50 (HS 578T): > 100000 nM | GI50 (RPMI-8226): 366 nM | GI50 (HCC-2998): 750 nM | GI50 (OVCAR-3): 970 nM | GI50 (CAKI-1): 259 nM | CC50 (CAKI-1): 5310 nM | GI50 (NCI-H23): 506 nM | GI50 (SW-620): 320 nM | GI50 (SNB-75): 214 nM | LC50 (concentration killing 50% of cells) at 48 h [2]: > 100000 nM | GI50 (HL-60(TB)): 356 nM | GI50 (IGR-OV1): 392 nM | CC50 at 48 h [3]: 98200 nM | GI50 (RXF 393): 671 nM | CC50 (RXF 393): 5960 nM | GI50 (HOP-92): 246 nM | LC50 at 48 h [4]: > 100000 nM | GI50 (NCI-H226): 1340 nM | CC50 at 48 h [5]: 19500 nM | GI50 (SR): 289 nM | CC50 at 48 h [6]: > 100000 nM | GI50 (MDA-MB-468): 518 nM | CC50 (MDA-MB-468): > 100000 nM | GI50 (HOP-62): 569 nM | CC50 at 48 h [7]: > 100000 nM | GI50 (TK-10): 1740 nM | CC50 (TK-10): > 100000 nM | cytotoxicity, comparison in words (Human tumor cell lines): cytotoxicity that is higher | GI50 (786-0): 707 nM | GI50 (MALME-3M): 623 nM | GI50 (OVCAR-8): 412 nM | CC50 (OVCAR-8): > 100000 nM

Cc1cc2nc3c4ccccc4n(CCN(C)C)c3nc2cc1C [B220, 2-(2,3-dimethyl-6H-indolo [2,3-b]quinoxalin-6-yl)-N,N-dimethylethanamine, reference compound]
GI50 (K-562): 1990 nM | CC50 (K-562): > 100000 nM | GI50 (LOX IMVI): 748 nM | CC50 at 48 h [8]: 18900 nM | GI50 (OVCAR-5): 2100 nM | CC50 at 48 h [1]: 33400 nM | GI50 (HS 578T): 1570 nM | CC50 (HS 578T): 67400 nM | GI50 (HCC-2998): 1470 nM | CC50 at 48 h [9]: 15700 nM | GI50 (OVCAR-3): 1910 nM | CC50 at 48 h [10]: 56800 nM | GI50 (CAKI-1): 982 nM | CC50 (CAKI-1): > 100000 nM | GI50 (NCI-H23): 1870 nM | CC50 at 48 h [11]: 45600 nM | GI50 (SW-620): 540 nM | LC50 (50% lethal concentration) at 48 h [12]: 35000 nM | GI50 (SNB-75): 1280 nM | LC50 (concentration killing 50% of cells) at 48 h [2]: 80200 nM | GI50 (HL-60(TB)): 1990 nM | CC50 (HL-60(TB)): > 100000 nM | GI50 (IGR-OV1): 1280 nM | CC50 at 48 h [3]: 72400 nM | GI50 (RXF 393): 1560 nM | CC50 (RXF 393): 12200 nM | GI50 (HOP-92): 1360 nM | LC50 at 48 h [4]: > 100000 nM | GI50 (NCI-H226): 2010 nM | CC50 at 48 h [5]: > 100000 nM | GI50 (MDA-MB-468): 1320 nM | CC50 (MDA-MB-468): 9930 nM | GI50 (HOP-62): 1110 nM | CC50 at 48 h [7]: > 100000 nM | GI50 (TK-10): 2970 nM | CC50 (TK-10): 71400 nM | GI50 (786-0): 1970 nM | LC50 (786-0): 62000 nM | GI50 (MALME-3M): 1410 nM | CC50 at 48 h [13]: 53300 nM | GI50 (OVCAR-8): 1160 nM | CC50 (OVCAR-8): 87200 nM

Cc1cc2nc3c4cc([N+](=O)[O-])ccc4n(CCN(C)C)c3nc2cc1C [JBA-185, 2-(2,3-dimethyl-9-nitro-6H-indolo[2,3-b]quinoxalin-6-yl)-N,N-dimethylethanamine]
GI50 (K-562): 360 nM | CC50 (K-562): > 100000 nM | GI50 (OVCAR-5): 587 nM | CC50 at 48 h [1]: > 100000 nM | GI50 (HS 578T): 1570 nM | CC50 (HS 578T): > 100000 nM | GI50 (RPMI-8226): 389 nM | GI50 (HCC-2998): 756 nM | CC50 at 48 h [9]: 6530 nM | GI50 (OVCAR-3): 590 nM | CC50 at 48 h [10]: > 100000 nM | GI50 (CAKI-1): 251 nM | CC50 (CAKI-1): 7480 nM | GI50 (NCI-H23): 492 nM | CC50 at 48 h [11]: 22600 nM | GI50 (SW-620): 302 nM | LC50 (50% lethal concentration) at 48 h [12]: > 100000 nM | GI50 (SNB-75): 447 nM | LC50 (concentration killing 50% of cells) at 48 h [2]: 5450 nM | GI50 (HL-60(TB)): 914 nM | CC50 (HL-60(TB)): > 100000 nM | GI50 (IGR-OV1): 357 nM | CC50 at 48 h [3]: > 100000 nM | GI50 (RXF 393): 638 nM | CC50 (RXF 393): 5500 nM | GI50 (HOP-92): 642 nM | LC50 at 48 h [4]: > 100000 nM | GI50 (NCI-H226): 521 nM | CC50 at 48 h [5]: > 100000 nM | GI50 (SR): 250 nM | CC50 at 48 h [6]: > 100000 nM | GI50 (MDA-MB-468): 374 nM | CC50 (MDA-MB-468): 5300 nM | GI50 (HOP-62): 507 nM | CC50 at 48 h [7]: > 100000 nM | GI50 (TK-10): 371 nM | CC50 (TK-10): > 100000 nM | cytotoxicity, comparison in words (Human tumor cell lines): less cytotoxic than B220 | growth inhibition (GI50), comparison in words (Human tumor cell lines): lower GI50 compared to B220 | GI50 (786-0): 757 nM | LC50 (786-0): 9560 nM | GI50 (MALME-3M): 542 nM | CC50 at 48 h [13]: 5100 nM | GI50 (OVCAR-8): 550 nM | CC50 (OVCAR-8): > 100000 nM
